Laboratory results from patent US11883526B2 (priority 2019, dated 2024).

How the values were obtained:
[1] = tested on: elderly subjects with TRD; conditions: US patients aged ≥65 years
Description: Safety evaluation included reported adverse events, clinical laboratory tests, vital sign measurements, physical examinations, electrocardiograms and nasal examinations. Safety was assessed via treatment emergent AEs (TEAEs).

[2] = tested on: subjects with MDD at imminent risk for suicide; experiment: Beck Scale for Suicidal Ideation, BSS ([…]2001); format: in vivo, human; conditions: 84 mg; for BSS total score change from baseline, Diff. of LS Means (minus Placebo): ANCOVA LOCF, ITT
Description: The BSS is a 21-item self-reported instrument to detect and measure the severity of suicidal ideation in adults and adolescents aged 17 years and older. The BSS total score represents the severity of suicide ideation, and it is calculated by summing the ratings of the first 19 items; the total score ranges from 0 to 38, with a higher score representing greater suicide ideation. Increasing scores reflect increases in suicidal risk.

[3] = Text: This example provides an LC-MS/MS method for the determination of ketamine and norketamine in sodium heparin human plasma using ketamine-d4 and norketamine-d4 as the respective internal standards (IS).

## CN[C@]1(c2ccccc2Cl)CCCCC1=O [esketamine, (S)-2-(2-chlorophenyl)-2-(methylamino)cyclohexanone]
[1]
  patients who withdrew the nasal spray: 2 n
[2]; Day 1 4-hours postdose, Day 2 (DB), End Point (DB)
  change in BSS total score vs placebo: no statistically significant differences
[2]; Day 1(DB): 4 H
  BSS total score change from baseline, Diff. of LS Means (minus Placebo): −2.3
[2]; Day 2(DB)
  BSS total score change from baseline, Diff. of LS Means (minus Placebo): −1.9
[2]; End Point(DB)
  BSS total score change from baseline, Diff. of LS Means (minus Placebo): −1.7
[3]; freeze (−20° C.)/thaw (room temperature)
  QC sample freeze/thaw stability: 3 freeze (−20° C.)/thaw (room temperature) cycles
[3]; human plasma QC sample at −20° C.
  QC sample long-term storage stability: 707 days at −20 °C
[3]; human plasma QC sample, room temperature
  QC sample bench-top stability: 18 hours at room temperature
